For assay [1], the system named is IL-17A-induced G-CSF production in human normal keratinocyte (NHK). Nature of the assay: NHK assay: IL-17A-induced G-CSF production in normal human keratinocytes. It counts as cell-based. The note with it: 24 h, IL-17A 5 ng/mL, G-CSF by HTRF, average if tested more than once. In outline: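 Stimulus rhIL-17A 5 ng/mL final, premixed 1 h rt with compound; adult NHK, 5% FBS, 0.2% DMSO. Viability by CellTiter-Glo vs DMSO.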

Assay [2] concerns the target IL-17A(FLAG-Tagged): IL-17RA(His-Tagged) binding (Homo sapiens, UniProt Q16552, K93Q). Nature of the assay: IL-17A(FLAG-tagged):IL-17RA(His-tagged) binding disruption Eu-HTRF assay, Protocol 1. To be noted: FLAG-IL-17A 2.5 nM; average if tested more than once. The source says:
IL-17A(FLAG-Tagged): IL-17RA(His-Tagged) Binding Disruption Eu-HTRF Assay
An antibody directed against the FLAG tag of IL-17A (SEQ ID NO: 1) is labeled with the HTRF donor chromophore (Europium-cryptate). IL-17A is present as a dimer that is “locked into” this quaternary structure due to the formation of loop-spanning […] disulfide bridges. The construct of IL-17RA used in the assay excludes the […] portion of the receptor and is fused to a C-terminal 10×His tag (SEQ ID NO:2). An antibody directed against the His tag of the IL-17RA chimera is labeled with the HTRF acceptor chromophore (“D2”). The fluorescence-resonance energy transfer (FRET) depends on the vicinity of the donor chromophore to the acceptor, and interruption of the binding between the IL-17A and IL-17RA causes the reduction/loss of FRET. Therefore, this assay allows to evaluate the compound effect on the binding IL-17A and IL-17RA by monitoring the fluorescence intensity of donor vs acceptor. The assay was run using either Protocol 1 or Protocol 2 as described below.
Protocol 1. 40 nl of 2-fold serial diluted compound solution for total 22 dilution points is added into each well of a 1536-well, white, low-volume, non-binding plate (Greiner #782904), then 2 μl of FLAG tagged IL-17A at 2×final concentration (2.5 nM) in solution of PBS+0.01% Triton-X100 is added to each well. The assay plate is briefly centrifuged then incubated for 1 h at rt. A mixed solution is prepared containing 2×5 nM 10HIS×IL-17RA, 2×2.5 nM Eu-anti-FLAG (CISBIO), 2×5 nM D2-anti-HIS (CISBIO) in PBS+0.01% Triton-X100+200 mM Potassium Fluoride (Sigma 60238) and 2 μl of mix is added to each well of the assay plate. The plate is briefly centrifuged then incubated for 2 h at rt. The HTRF intensities at the wavelength of donor (620 nm) and acceptor (665 nm) are measured using BMG Pherastar. The ratio between intensities at two wavelengths is calculated and plotted against the compound concentration and the data is fitted to a one-site competition model to yield IC50 of the compound.

Chain of UniProt Q16552 (Q16552 with tags, fused parts or gaps K93Q): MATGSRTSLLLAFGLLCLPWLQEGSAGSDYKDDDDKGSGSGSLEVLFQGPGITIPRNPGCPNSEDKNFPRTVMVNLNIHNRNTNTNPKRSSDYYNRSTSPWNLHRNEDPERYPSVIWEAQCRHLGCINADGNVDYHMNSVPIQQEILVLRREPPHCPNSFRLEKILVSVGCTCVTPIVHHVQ

One may read the IC50 as the midpoint of a concentration-inhibition curve. Low values mean inhibition by little substance, high ones a need for much substance. For `CC1CCCN(Cc2cnn3cc([C@@H](NC(=O)c4ccnn4C(C)C)C4CCC(F)(F)CC4)nc3c2)C(=O)N1` (single isomer, unassigned) [Example 94, N—((S)-(4,4-Difluorocyclohexyl)(7-(((R*)-4-methyl-2-oxo-1,3-diazepan-1-yl)methyl)imidazo[1,2-b]pyridazin-2-yl)methyl)-1-isopropyl-1H-pyrazole-5-carboxamide], the IC50 is more than 100 nM in assay [1] (Homo sapiens, Keratinocyte) and more than 100 nM in assay [2].
For the compound `CC1CCCN(Cc2cnn3cc([C@@H](NC(=O)c4ccnn4C(C)C)C4CCC(F)(F)CC4)nc3c2)C(=O)N1` (single isomer, unassigned) [Example 95, N—((S)-(4,4-Difluorocyclohexyl)(7-(((S*)-4-methyl-2-oxo-1,3-diazepan-1-yl)methyl)imidazo[1,2-b]pyridazin-2-yl)methyl)-1-isopropyl-1H-pyrazole-5-carboxamide], the IC50 in assay [1] and in assay [2] was more than 100 nM in each case.
For the compound `CC1CCCN(Cc2cnn3cc([C@@H](NC(=O)c4nonc4C4CC4)C4CCC(F)(F)CC4)nc3c2)C(=O)N1` (single isomer, unassigned) [Example 96, 4-Cyclopropyl-N—((S)-(4,4-difluorocyclohexyl)(7-(((R*)-4-methyl-2-oxo-1,3-diazepan-1-yl)methyl)imidazo[1,2-b]pyridazin-2-yl)methyl)-1,2,5-oxadiazole-3-carboxamide], the half-inhibitory concentration (IC50) is more than 100 nM in assay [1] (Homo sapiens, Keratinocyte) and less than 50 nM in assay [2].
Turning to `CC1CCCN(Cc2cnn3cc([C@@H](NC(=O)c4nonc4C4CC4)C4CCC(F)(F)CC4)nc3c2)C(=O)N1` (single isomer, unassigned) [Example 97, 4-Cyclopropyl-N—((S)-(4,4-difluorocyclohexyl)(7-(((S*)-4-methyl-2-oxo-1,3-diazepan-1-yl)methyl)imidazo[1,2-b]pyridazin-2-yl)methyl)-1,2,5-oxadiazole-3-carboxamide], the figures for the concentration for half-maximal inhibition (IC50) in assay [1] and in assay [2] were more than 100 nM and 50 to 100 nM, respectively.
In the case of `O=C(N[C@H](c1cn2ncc([C@@H](C3CC3)N3CC(F)(F)CNC3=O)cc2n1)C1CCC(F)(F)CC1)c1nonc1C1CC1` [Example 7, 4-Cyclopropyl-N—((S)-(7-((R)-cyclopropyl(5,5-difluoro-2-oxotetrahydropyrimidin-1(2H)-yl)methyl)imidazo[1,2-b]pyridazin-2-yl)(4,4-difluorocyclohexyl)methyl)-1,2,5-oxadiazole-3-carboxamide], the IC50 in assay [1] (Homo sapiens, Keratinocyte) is less than 50 nM; in assay [2], less than 50 nM.
As for `Cc1nonc1C(=O)N[C@H](c1cn2ncc([C@@H](C3CC3)N3CC(F)(F)CNC3=O)cc2n1)C1CCC(F)(F)CC1` [Example 8, N—((S)-(7-((R)-Cyclopropyl(5,5-difluoro-2-oxotetrahydropyrimidin-1(2H)-yl)methyl)imidazo[1,2-b]pyridazin-2-yl)(4,4-difluorocyclohexyl)methyl)-4-methyl-1,2,5-oxadiazole-3-carboxamide], the 50% inhibitory concentration (IC50) in assay [1] (Homo sapiens, Keratinocyte) was 50 to 100 nM; in assay [2], less than 50 nM.
For the compound `[2H]C([2H])([2H])C([2H])([2H])n1nccc1C(=O)N[C@H](c1cn2ncc([C@@H](C3CC3)N3CC(F)(F)CNC3=O)cc2n1)C1CCC(F)(F)CC1` [Example 9, N—((S)-(7-((R)-Cyclopropyl(5,5-difluoro-2-oxotetrahydropyrimidin-1(2H)-yl)methyl)imidazo[1,2-b]pyridazin-2-yl)(4,4-difluorocyclohexyl)methyl)-1-(ethyl-d5)-1H-pyrazole-5-carboxamide], the IC50 was less than 50 nM in assay [1] (Homo sapiens, Keratinocyte) and less than 50 nM in assay [2].
Take `CC(C)n1nccc1C(=O)N[C@H](c1cn2ncc([C@@H](C3CC3)N3CC(F)(F)CNC3=O)cc2n1)C1CCC(F)(F)CC1` [Example 10, N—((S)-(7-((R)-Cyclopropyl(5,5-difluoro-2-oxotetrahydropyrimidin-1(2H)-yl)methyl)imidazo[1,2-b]pyridazin-2-yl)(4,4-difluorocyclohexyl)methyl)-1-isopropyl-1H-pyrazole-5-carboxamide]: the IC50 was less than 50 nM in assay [1] (Homo sapiens, Keratinocyte) and 50 to 100 nM in assay [2].
On to `COC[C@H](c1cnn2cc([C@@H](NC(=O)c3nonc3C)C3CCC(F)(F)CC3)nc2c1)N1CC(F)(F)CNC1=O` [Example 12, N—((S)-(7-((S)-1-(5,5-Difluoro-2-oxotetrahydropyrimidin-1(2H)-yl)-2-methoxyethyl)imidazo[1,2-b]pyridazin-2-yl)(4,4-difluorocyclohexyl)methyl)-4-methyl-1,2,5-oxadiazole-3-carboxamide], for which the IC50 in assay [1] (Homo sapiens, Keratinocyte) was less than 50 nM; in assay [2], less than 50 nM.
Turning to `[2H]C([2H])([2H])C([2H])([2H])n1nccc1C(=O)N[C@H](c1cn2ncc([C@@H](COC)N3CC(F)(F)CNC3=O)cc2n1)C1CCC(F)(F)CC1` [Example 13, N—((S)-(7-((S)-1-(5,5-Difluoro-2-oxotetrahydropyrimidin-1(2H)-yl)-2-methoxyethyl)imidazo[1,2-b]pyridazin-2-yl)(4,4-difluorocyclohexyl)methyl)-1-(ethyl-d5)-1H-pyrazole-5-carboxamide], the IC50 in assay [1] (Homo sapiens, Keratinocyte) is less than 50 nM; in assay [2], 50 to 100 nM.
Taken in the same sequence, the figures for `COC[C@H](c1cnn2cc([C@@H](NC(=O)c3ccnn3C(C)C)C3CCC(F)(F)CC3)nc2c1)N1CC(F)(F)CNC1=O` [Example 14, N—((S)-(7-((S)-1-(5,5-Difluoro-2-oxotetrahydropyrimidin-1(2H)-yl)-2-methoxyethyl)imidazo[1,2-b]pyridazin-2-yl)(4,4-difluorocyclohexyl)methyl)-1-isopropyl-1H-pyrazole-5-carboxamide] were less than 50 nM and 50 to 100 nM.
The corresponding values for `CC(C)(OC[C@H](NC(=O)c1nonc1C1CC1)c1cn2ncc(CN3CC(F)(F)CNC3=O)cc2n1)C(F)(F)F` [Example 17, (R)-4-Cyclopropyl-N-(1-(7-((5,5-difluoro-2-oxotetrahydropyrimidin-1(2H)-yl)methyl)imidazo[1,2-b]pyridazin-2-yl)-2-((1,1,1-trifluoro-2-methylpropan-2-yl)oxy)ethyl)-1,2,5-oxadiazole-3-carboxamide] are less than 50 nM and less than 50 nM.
Taken in the same sequence, the figures for `O=C(N[C@H](c1cn2ncc(CN3CCCNC3=O)cc2n1)C1CCC(F)(F)CC1)c1nonc1C1CC1` [Example 18, (S)-4-Cyclopropyl-N-((4,4-difluorocyclohexyl)(7-((2-oxotetrahydropyrimidin-1(2H)-yl)methyl)imidazo[1,2-b]pyridazin-2-yl)methyl)-1,2,5-oxadiazole-3-carboxamide] were more than 100 nM and more than 100 nM.
For `CC(C)n1nccc1C(=O)N[C@H](c1cn2ncc(CN3CCCNC3=O)cc2n1)C1CCC(F)(F)CC1` [Example 19, (S)—N-((4,4-Difluorocyclohexyl)(7-((2-oxotetrahydropyrimidin-1(2H)-yl)methyl)imidazo[1,2-b]pyridazin-2-yl)methyl)-1-isopropyl-1H-pyrazole-5-carboxamide], the IC50 is more than 100 nM in assay [1] (Homo sapiens, Keratinocyte) and more than 100 nM in assay [2].
For the compound `O=C(N[C@H](c1cn2ncc(CN3CC(F)(F)CNC3=O)cc2n1)C1CCC(F)(F)CC1)c1nonc1C1CC1` [Example 20, (S)-4-Cyclopropyl-N-((7-((5,5-difluoro-2-oxotetrahydropyrimidin-1(2H)-yl)methyl)imidazo[1,2-b]pyridazin-2-yl)(4,4-difluorocyclohexyl)methyl)-1,2,5-oxadiazole-3-carboxamide], the IC50 in assay [1] (Homo sapiens, Keratinocyte) is less than 50 nM; in assay [2], less than 50 nM.
In the case of `CC(C)n1nccc1C(=O)N[C@H](c1cn2ncc(CN3CC(F)(F)CNC3=O)cc2n1)C1CCC(F)(F)CC1` [Example 21, (S)—N-((7-((5,5-Difluoro-2-oxotetrahydropyrimidin-1(2H)-yl)methyl)imidazo[1,2-b]pyridazin-2-yl)(4,4-difluorocyclohexyl)methyl)-1-isopropyl-1H-pyrazole-5-carboxamide], the IC50 in assay [1] (Homo sapiens, Keratinocyte) was less than 50 nM; in assay [2], more than 100 nM.

The record behind these values is US12173007B2, “Imidazopyridazine IL-17 inhibitor compounds” (Janssen Pharmaceutica NV, priority 2021, dated 2024).
